Laboratory results published in patent US11485751B2, “Apramycin derivatives” (WAYNE STATE UNIVERSITY, priority 2017, dated 2022).
In brackets after ≈: the same amount, converted by molar mass.

Key:
[1] = system: clinical isolates carrying AAC(3)-IV; assay: MIC broth microdilution, AAC(3)-IV; assay type: cell-based; settings: clinical isolates, IMM Univ. Zurich; AAC(3)-IV; read-out: MIC AAC(3)-IV
How it was run: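 Clinical isolates supplied by the Zurich Institute of Medical Microbiology were tested for MIC (μg/ml) using CLSI M07-A10 broth microdilution.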

[2] = system: clinical isolates carrying APH(3′)-I; assay: MIC broth microdilution, APH(3′)-I; assay type: cell-based; settings: IMM Univ. Zurich
Source text: (§1) Minimal inhibitory concentrations (MIC) have been determined by broth microdilution assays (CLSI. Methods for Dilution Antimicrobial Susceptibility Tests for Bacteria That Grow Aerobically; Approved Standard—Tenth Edition. CLSI document M07-A10. Wayne, Pa.: Clinical and Laboratory Standards Institute; 2015.).
(§2) Minimal inhibitory concentrations (MICs, […]) against clinical isolates from Institute of Medical Microbiology, Univ. Zurich, and the IC50 values for bacterial, human mitochondrial and human cytosolic ribosomes are indicated.

[3] = system: clinical isolates carrying APH(3′)-II; assay: MIC broth microdilution, APH(3′)-II; assay type: cell-based; settings: clinical isolates, IMM Univ. Zurich; APH(3′)-II; read-out: MIC APH(3′)-II
Source text: as §1, §2

[4] = system: clinical isolates carrying APH(3′)-III; assay: MIC broth microdilution, APH(3′)-III; assay type: cell-based; settings: IMM Univ. Zurich
Source text: as §1, §2

[5] = system: clinical isolates carrying APH(3′)-VI; assay: MIC broth microdilution, APH(3′)-VI; assay type: cell-based; settings: IMM Univ. Zurich
Source text: as §1, §2

bacterial ribosomes = assay: in-vitro translation assay, bacterial ribosomes; assay type: biochemical
How it was run: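 Inhibitory potency was determined as IC50 in in-vitro translation systems based on bacterial ribosomes, human chimeric (mitochondrial-type) ribosomes or rabbit reticulocyte (cytosolic) ribosomes.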

[6] = system: human mitochondrial ribosomes; assay: in-vitro translation assay, human mitochondrial (human chimeric) ribosomes; assay type: biochemical
How it was run: (§3)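 Translation inhibition is measured in vitro with isolated ribosomes, and IC50 derived. The human cytosolic values actually use rabbit reticulocyte ribosomes, and the mitochondrial values use human chimeric ribosomes.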

[7] = system: human cytosolic ribosomes; assay: in-vitro translation assay, human cytosolic ribosomes; assay type: biochemical
How it was run: as §3

[8] = system: AG212, Escherichia coli ATCC25922; assay: MIC reference strain AG212; assay type: cell-based; settings: Escherichia coli; reference strain ATCC25922; read-out: MIC AG212 E. coli
How it was run: (§4)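 The method determines minimal inhibitory concentrations using the standard CLSI microdilution procedure in liquid medium.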

[9] = system: AG215, Klebsiella pneumonia; assay: MIC reference strain AG215; assay type: cell-based; settings: Klebsiella pneumoniae, reference strain; read-out: MIC AG215 K. pneumonia
How it was run: as §4

[10] = system: AG290, Enterobacter cloacae; assay: MIC reference strain AG290; assay type: cell-based; settings: Enterobacter cloacae; reference strain; read-out: MIC AG290 E. cloacae
How it was run: as §4

[11] = system: AG220, Pseudomonas aeruginosa ATCC27853; assay: MIC reference strain AG220; assay type: cell-based; settings: Pseudomonas aeruginosa, ATCC27853, reference strain ATCC27853; read-out: MIC AG220 P. aeruginosa
How it was run: as §4

[12] = system: AG225, Acinetobacter baumannii pittii; assay: MIC reference strain AG225; assay type: cell-based; settings: Acinetobacter baumannii, reference strain; read-out: MIC AG225 A. baumannii
How it was run: as §4

[13] = system: SZ380, Mycobacterium smegmatis; assay: MIC reference strain SZ380; assay type: cell-based; settings: Mycolicibacterium smegmatis, reference strain; read-out: MIC SZ380 M. smegmatis
How it was run: as §4

ATCC19977 M. abcessus = assay: MIC reference strain ATCC19977; assay type: cell-based; settings: read-out: MIC ATCC19977 M. abcessus
How it was run: (§5)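 Susceptibility was tested per CLSI aerobic dilution protocol using microbroth format, with the MIC taken as the end point.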

AG001 E. coli WT = assay: Antibacterial activity, clinical isolate AG001; assay type: cell-based; set-up: unit not given here
How it was run: as §5

AG055 E. coli WT = assay: Antibacterial activity, clinical isolate AG055; assay type: cell-based; set-up: unit not given here
How it was run: as §5

AG003 E. coli AAC(3)-II = assay: Antibacterial activity, clinical isolate AG003; assay type: cell-based
How it was run: as §5

AG173 E. coli AAC(3)-IV = assay: Antibacterial activity, clinical isolate AG173; assay type: cell-based
How it was run: as §5

AG163 E. coli APH(3′)-I = assay: Antibacterial activity, clinical isolate AG163; assay type: cell-based
Source text: as §1
Table 4 and 5 show the antibacterial activity of the compounds of the invention against bacterial reference strains (table 4) and against representative clinical isolates (table 5).

AG038 MRSA = assay: Antibacterial activity, clinical isolate AG038; assay type: cell-based; set-up: unit not given here
How it was run: as §5

[14] = system: AG039 MRSA AAC(6′)-I ANT(4′)-I; assay: Antibacterial activity, clinical isolate AG039; assay type: cell-based
How it was run: as §5

[15] = system: AG042 MRSA AAC(6′)-I ANT(4′)-I APH(2′); assay: Antibacterial activity, clinical isolate AG042; assay type: cell-based; set-up: unit not given here
How it was run: as §5

AG031 P. aer. APH(3′)-II = assay: Antibacterial activity, clinical isolate AG031; assay type: cell-based; set-up: unit not given here
How it was run: as §5

AG032 P. aer. APH(3′)-II = assay: Antibacterial activity, clinical isolate AG032; assay type: cell-based; set-up: unit not given here
How it was run: as §5

[16] = system: AG033 P. aer. APH(3′)-II AAC(6′)-I; assay: Antibacterial activity, clinical isolate AG033; assay type: cell-based; set-up: unit not given here
How it was run: as §5

[17] = system: Engineered E. coli pH430 WT; assay: Activity, engineered E. coli pH430 WT; assay type: cell-based; settings: wild type
How it was run: (§6)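 Susceptibility was measured as minimal inhibitory concentration using a standardized broth microdilution protocol (CLSI document M07-A10).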

[18] = system: Engineered E. coli AG103 armA; assay: Activity against G1405-methylated 16S-rRNA, E. coli AG103 armA; assay type: cell-based
How it was run: as §6

[19] = system: Engineered E. coli pH424 armA; assay: Activity against G1405-methylated 16S-rRNA, E. coli pH424 armA; assay type: cell-based
How it was run: as §6

[20] = system: Engineered E. coli pH425 rmtB; assay: Activity against G1405-methylated 16S-rRNA, E. coli pH425 rmtB; assay type: cell-based
How it was run: as §6

[21] = system: Engineered E. coli pH426 rmtC; assay: Activity against G1405-methylated 16S-rRNA, E. coli pH426 rmtC; assay type: cell-based
How it was run: as §6

[22] = system: Engineered E. coli pH427 rmtF; assay: Activity against G1405-methylated 16S-rRNA, E. coli pH427 rmtF; assay type: cell-based
How it was run: as §6

[23] = system: APH(3′, 5″) resistance determinant; assay: Susceptibility to the APH(3′, 5″) resistance determinant; assay type: cell-based
Source text: as §1
The introduction of a formamido group results in compounds that display increased selectivity for the bacterial ribosome over the mitochondrial (wild type and A1555G mutant) ribosomes, predictive of reduced ototoxicity.

Row | Structure (SMILES) | MIC [1] [µg/mL] | MIC [2] [µg/mL] | MIC [3] [µg/mL] | MIC [4] [µg/mL] | MIC [5] [µg/mL] | IC50 (bacterial ribosomes) [µM] | IC50 [6] [µM] | IC50 [7] [µM] | MIC [8] [µg/mL] | MIC [9] [µg/mL] | MIC [10] [µg/mL] | MIC [11] [µg/mL] | MIC [12] [µg/mL] | MIC (ATCC19977 M. abcessus) [µg/mL] | Antibacterial activity AG001 E. coli WT (AG001 E. coli WT) | Antibacterial activity AG055 E. coli WT (AG055 E. coli WT) | Antibacterial activity AG003 E. coli AAC(3)-II (AG003 E. coli AAC(3)-II) | Antibacterial activity AG173 E. coli AAC(3)-IV (AG173 E. coli AAC(3)-IV) | Antibacterial activity AG163 E. coli APH(3′)-I (AG163 E. coli APH(3′)-I) | Antibacterial activity AG038 MRSA (AG038 MRSA) | further results
1 | CNC1C(OC2OC(CO)C(N)C(O)C2O)OC2CC(N)C(OC3C(N)CC(N)C(O)C3OC3OC(CNC=O)C(O)C3O)OC2C1O [DC177, 5-O-β-(5′″-Formamido-5′″-deoxy-D-ribefuranosyl) apramycin] | > 32 | 4 (≈ 5.72 µM) | 8 (≈ 11.4 µM) | 2 (≈ 2.86 µM) | 8 (≈ 11.4 µM) | 0.23 | 399 | > 500 | 8 | 4 | 8 | > 64 | 16 | 16 (≈ 22.9 µM) | 8 | 16 | 8 | >64 | 8 | 32 | MIC [13]: 2 µg/mL; Antibacterial activity AG039 MRSA AAC(6′)-I ANT(4′)-I [14]: 16-32; Antibacterial activity AG042 MRSA AAC(6′)-I ANT(4′)-I APH(2′) [15]: 32; Antibacterial activity AG031 P. aer. APH(3′)-II (AG031 P. aer. APH(3′)-II): >32; Antibacterial activity AG032 P. aer. APH(3′)-II (AG032 P. aer. APH(3′)-II): >32; Antibacterial activity AG033 P. aer. APH(3′)-II AAC(6′)-I [16]: >32; Activity E. coli pH430 WT [17]: 8; Activity E. coli AG103 armA [18]: 2-4; Activity E. coli pH424 armA [19]: 8; Activity E. coli pH425 rmtB [20]: 8; Activity E. coli pH426 rmtC [21]: 16; Activity E. coli pH427 rmtF [22]: 8
2 | CNC1C(OC2OC(CO)C(N)C(O)C2O)OC2CC(N)C(OC3C(N)CC(N)C(O)C3OC3OC(CNC=O)C(OCCN)C3O)OC2C1O [DC186, 5-β-[3-O-(2-Aminoethyl)-5-deoxy-5-formamido-D-ribofuranosyl] apramycin] | > 32 | 2 (≈ 2.7 µM) | 2 (≈ 2.7 µM) | 0.25 (≈ 0.337 µM) | 2 (≈ 2.7 µM) | 0.06 | 69 | 105 | 2 to 4 | 1 | 1 to 2 | 16 to 32 | 8 | 8 (≈ 10.8 µM) | 2 | 4 | 2 | 32 | 2 | 4 | Antibacterial activity AG039 MRSA AAC(6′)-I ANT(4′)-I [14]: 4-8; Antibacterial activity AG042 MRSA AAC(6′)-I ANT(4′)-I APH(2′) [15]: 4-8; Antibacterial activity AG031 P. aer. APH(3′)-II (AG031 P. aer. APH(3′)-II): 16; Antibacterial activity AG032 P. aer. APH(3′)-II (AG032 P. aer. APH(3′)-II): 32; Antibacterial activity AG033 P. aer. APH(3′)-II AAC(6′)-I [16]: 64; Activity E. coli pH430 WT [17]: 2; Activity E. coli AG103 armA [18]: 0.5-1; Activity E. coli pH424 armA [19]: 2; Activity E. coli pH425 rmtB [20]: 2; Activity E. coli pH426 rmtC [21]: 4; Activity E. coli pH427 rmtF [22]: 2; susceptibility to the APH(3′, 5″) resistance determinant [23]: circumvent this problem
